These results are taken from PMC11768839 (Viruses, 2024).

Molecules are shown by their SMILES. Where “and” joins values, the source holds several entries; their conditions need not be identical. Equal values may be shown once. Where only a bound is given, the exact number is not on record here.

Data set [1] can be described thus: Cytotoxicity in Huh7 cells (alamarBlue). In kind it is cell-based. The note with it: human, listed with HCoV-229E qPCR assay. Background: The colour change of resazurin is a common sign of viable cells or microbes.
Another data set concerns Coronavirus (HCoV-229E). The data set can be described thus: HCoV-229E qPCR assay (viral RNA release into media) in Huh7 cells.
Data set [2] concerns Influenza A Virus (PR8). The data set can be described thus: Influenza PR8 TCID50 assay (infectivity) in A549 cells. The settings on record: MOI of 2, A549 cells.
A further data set can be described thus: in vitro. The note with it: human.
Data set [3] deals with Influenza A Virus (PR8). The data set can be described thus: Influenza PR8 qPCR assay (viral RNA release into media) in A549 cells.
The test system of data set [4] is HCoV-229E. The data set can be described thus: HCoV-229E infectious virus yield by TCID50 assay in Huh7 cells. The settings on record: dose reducing HCoV-229E RNA in media by 50% (EC50, 1.2 µM), 24 h.
The test system of data set [5] is HCoV-OC43. Kind of data set: HCoV-OC43 replication in human lung organoids (RTqPCR of media). In kind it is cell-based. The settings on record: 2.5 µM added post-infection, MOI of 2, 3 or 6 days post-infection. Background: In qPCR the cycle at which signal appears reflects the starting amount.
Data set [6] is classed as in vivo.
In data set [7] the test system is SARS-CoV-2 nucleocapsid (N) protein. Kind of data set: SARS-CoV-2 nucleocapsid (N) protein expression by western blot. In kind it is cell-based. The settings on record: SARS-CoV-2 SB2, Huh7 cells, immunoblot. In general terms: In western blotting, separated proteins are transferred to a membrane and probed.
The next data set concerns HIV-1. The arrangement: method as in earlier work. The settings on record: HIV-1 replication; cited from earlier work.
In data set [8] the test system is SARS-CoV-2. The data set can be described thus: SARS-CoV-2 replication in human lung organoids (RTqPCR of media). In kind it is cell-based. The note with it: 2.5 µM added post-infection, SB2, MOI of 2, 3 or 6 days post-infection.
For data set [9], the system named is HCoV-229E. The data set can be described thus: HCoV-229E intracellular viral RNA accumulation after delayed compound addition. In kind it is cell-based. The note with it: compound added 16 hpi, 9 h after addition, MOI 2, Huh7 cells.
A short description of another data set: Pharmacokinetics in mice. In kind it is in vivo.
Data set [10] has as its system SARS-CoV-2. In kind it is cell-based.
The test system of a further data set is HAdV-C5. The data set can be described thus: Adenovirus HAdV-C5 virus yield in A549 cells (endpoint dilution). The settings on record: 5 µM, HAdV-C5 100 IU/cell, 24 hpi. In kind it is cell-based, human adenovirus serotype 5.
Data set [11] has as its system HCoV-OC43. Kind of data set: HCoV-OC43 viral release into media (RTqPCR) in Huh7 cells. The settings on record: 2.5 µM, MOI of 2, 24 h.

By EC50 is commonly meant the concentration at which the effect is half-maximal. By EC90 is commonly meant the concentration needed for an effect of 90%. Take `CC(C)(C)NC(=O)N[C@H](C(=O)N1C[C@H]2[C@@H]([C@H]1C(=O)NC(CC1CCC1)C(=O)C(N)=O)C2(C)C)C(C)(C)C` (stereo partly drawn) [Boceprevir, reference compound]: in [1] (MOI of 2), the CC50 is more than 100000 nM. In the data set with Coronavirus (HCoV-229E) (MOI of 2, Huh7 cells), this compound had an EC50 of 111 ± 24 nM and an EC90 of 1200 ± 95 nM.

In the data set on Influenza A Virus (PR8) [2], `NC(=O)c1nc(F)c[nH]c1=O` [Favipiravir] registered an EC50 of 1200 ± 135 nM and an EC90 of 6200 ± 332 nM. This compound also registered a CC50 in “in vitro” of more than 100000 nM.

On to `O=[N+]([O-])c1ccc(Nc2ccc(Cl)c(C(F)(F)F)c2)c2nonc12` [Compound 5342191, N-[4-chloro-3-(trifluoromethyl)phenyl]-7-nitro-2,1,3-benzoxadiazol-4-amine], for which the EC50 in the data set with Influenza A Virus (PR8) [3] (MOI of 0.01) is 47 ± 13 nM; with Influenza A Virus (PR8) [3] (MOI of 2) it was 51 ± 42 nM; with Coronavirus (HCoV-229E) (MOI of 0.01), 73 ± 13 nM; in the data set with Coronavirus (HCoV-229E) (MOI of 2, Huh7 cells), 1200 ± 196 nM; in the data set with Influenza A Virus (PR8) [2], 75 ± 17 nM; in the data set on HIV-1 it was 750 nM. Further, the EC90 in the data set on Influenza A Virus (PR8) [3] (MOI of 0.01) is 149 ± 55 nM; in the data set with Influenza A Virus (PR8) [3] (MOI of 2), 104 ± 23 nM; with Coronavirus (HCoV-229E) (MOI of 0.01) it was 857 ± 56 nM; with Coronavirus (HCoV-229E) (MOI of 2, Huh7 cells), 2500 ± 282 nM; in the data set with Influenza A Virus (PR8) [2], 99 ± 8 nM; in the data set on HIV-1 it was 1750 nM. Also, the “reduction in infectious virus yield” value with HCoV-229E [4] is “over 90%”. The “HCoV-OC43 replication in human lung organoids” value with HCoV-OC43 [5] was “effectively blocked”. Besides, the “body weight / gross necroscopy findings” value in data set [6] (5342191-treated mice) is recorded as “absence of significant changes in body weight”. Further, the tolerability result in data set [6] (daily oral dose of 40 mg/kg over 7 days, mice) is “well tolerated”. In addition, the “reduction of SARS-CoV-2 nucleocapsid (N) protein expression” value in data set [7] was “approximately 90%”. In addition, the CC50 in data set [1] (MOI of 0.01) is more than 1000 nM; in data set [1] (MOI of 2) it was 34000 ± 755 nM. Also, the “effect on cell metabolism” value in the data set with A549 cells was “limited effect”. The “SARS-CoV-2 replication in human lung organoids” value with SARS-CoV-2 [8] is listed as “effectively blocked”. Besides, the “reduction of viral genomic RNA accumulation” value with HCoV-229E [9] is listed as ~ 50%. Moreover, the oral bioavailability result in the data set “Pharmacokinetics in mice” is given as “orally bioavailable”. In “Pharmacokinetics in mice” (oral dose of 30 mg/kg, up to 8 h after administration, 30 mg/kg), the blood concentration maintained was 2 µg/mL and 5.5 µM. Further, the “suppression of the release of SARS-CoV-2” value in the data set on SARS-CoV-2 [10] is given as “approximately 80%”. The “reduction in virus yield (maximal effect)” value in the data set on HAdV-C5 was ~ 1000 fold. In addition, the “inhibition of viral release into the media” value in the data set with HCoV-OC43 [11] is reported as “over 90%”.

In the data set with Influenza A Virus (PR8) [2], `CCOC(=O)C1=C[C@@H](OC(CC)CC)[C@H](NC(C)=O)[C@@H](N)C1` [Oseltamivir] had an EC50 of 257 ± 40 nM and an EC90 of 1500 ± 209 nM. This compound also showed a CC50 in the data set “in vitro” of more than 100000 nM.

In turn, `CC(C)C(=O)OC[C@H]1O[C@@H](n2ccc(NO)nc2=O)[C@H](O)[C@@H]1O` [Molnupiravir, reference compound] came in with a CC50 in data set [1] (MOI of 2) of more than 100000 nM. Moreover, in the data set with Coronavirus (HCoV-229E) (MOI of 2, Huh7 cells), a half-maximal effect (EC50) was put at 25 ± 9 nM and the EC90 is 137 ± 23 nM.
